In test [1] the test system is cultured human mast cells (CHMC). In words: CHMC low cell density ionomycin activation: tryptase assay. The class given is cell-based.
For test [2] the test system is unchanged. In words: CHMC low cell density IgE activation: tryptase assay. Conditions: anti-IgE. The class given is cell-based. Summed up: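 Supernatant tryptase activity, assayed with substrate for 30 min at room temperature, served as the degranulation measure. Mast cells (1000-1500 per well depending on donor) sat 1 hr at 37° C in MT before a 30 min anti-IgE challenge at 37° C.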

Regarding `O=C(COc1cccc(Nc2ncc(F)c(Nc3ccc4c(c3)OCCO4)n2)c1)N(CCO)CCO` [R926781, N2-[3-[N,N-Bis-(2-hydroxyethylamino)]carbonylmethyleneoxyphenyl]-N4-(3,4-ethylenedioxyphenyl)-5-fluoro-2,4-pyrimidinediamine], the IC50 in test [1] is greater than 10 µM; in test [2] it was 0.573 µM.

As for `O=C(COc1cccc(Nc2ncc(F)c(Nc3ccc4c(c3)OCCO4)n2)c1)NC(CO)CO` [R926784, N2-[3-(N-1,3-Dihydroxy-2-propylamino)carbonylmethyleneoxyphenyl]-N4-(3,4-ethylenedioxyphenyl)-5-fluoro-2,4-pyrimidinediamine], the half-inhibitory concentration (IC50) in test [1] is greater than 10 µM; in test [2] it was 0.252 µM.

Take `O=C1OCc2ccc(Nc3ncc(F)c(Nc4ccc5c(c4)OCCO5)n3)cc21` [R926786, N2-(1,1-Dihydroisobenzofuran-1-one-6-yl)-N4-(3,4-ethylenedioxyphenyl)-5-fluoro-2,4-pyrimidinediamine]: the IC50 was greater than 10 µM in test [1] and 0.504 µM in test [2].

Consider `Oc1cccc(Nc2ncc(F)c(Nc3ccc4c(c3)OC(F)(F)O4)n2)c1` [R926794, N4-(3,4-Difluoromethylenedioxyphenyl)-5-fluoro-N2-(3-hydroxyphenyl)-2,4-pyrimidinediamine], for which the IC50 is greater than 10 µM in test [1] and 1.38 µM in test [2].

Regarding `CCOC(=O)COc1cccc(Nc2ncc(F)c(Nc3cc(OC)cc(OC)c3)n2)c1` [R926795, N4-(3,5-Dimethoxyphenyl)-N2-(3-ethoxycarbonylmethyleneoxyphenyl)-5-fluoro-2,4-pyrimidinediamine], the 50% inhibitory concentration (IC50) in test [1] was greater than 10 µM; in test [2] it was 2.04 µM.

For the compound `CNC(=O)COc1cccc(Nc2ncc(F)c(Nc3cc(OC)cc(OC)c3)n2)c1` [R926796, N4-(3,5-Dimethoxyphenyl)-5-fluoro-N2-[3-(N-methylamino)carbonylmethyleneoxyphenyl]-2,4-pyrimidinediamine], the values for the half-maximal inhibitory concentration (IC50) in test [1] and in test [2] were greater than 10 µM and 0.914 µM, respectively.

Take `CCOC(=O)COc1cccc(Nc2ncc(C(=O)OCC)c(Nc3ccc4c(c3)OCCO4)n2)c1` [R926797, N4-(3,4-Ethylenedioxyphenyl)-N2-(3-ethoxycarbonylmethyleneoxyphenyl)-5-ethoxycarbonyl-2,4-pyrimidinediamine]: the IC50 in test [1] is greater than 10 µM; in test [2], 2.23 µM.

In the case of `CCOC(=O)COc1cccc(Nc2ncc(C(=O)OCC)c(Nc3cccc(O)c3)n2)c1` [R926798, N4-(3-Hydroxyphenyl)-N2-(3-ethoxycarbonylmethyleneoxyphenyl)-5-ethoxycarbonyl-2,4-pyrimidinediamine], the IC50 in test [1] worked out at 5.87 µM; in test [2] it was 2.35 µM.

Consider `CCOC(=O)COc1cccc(Nc2ncc(C(=O)OCC)c(Nc3ccc4c(c3)OC(F)(F)C(F)(F)O4)n2)c1` [R926799, N2-(3-Ethoxycarbonylmethyleneoxyphenyl)-5-ethoxycarbonyl-N4-(3,4-tetrafluoroethylenedioxyphenyl)-2,4-pyrimidinediamine], for which the half-maximal inhibitory concentration (IC50) in test [1] and in test [2] was greater than 10 µM in each case.

On to `CCOC(=O)c1cnc(Nc2cccc(OCC(=O)NC)c2)nc1Nc1ccc2c(c1)OCCO2` [R926800, 5-Ethoxycarbonyl-N4-(3,4-ethylenedioxyphenyl)-N2-[3-(N-methylamino)carbonylmethyleneoxyphenyl]-2,4-pyrimidinediamine], for which the IC50 in test [1] is greater than 10 µM; in test [2] it was 4.58 µM.

For `CCOC(=O)c1cnc(Nc2cccc(OCC(=O)NC)c2)nc1Nc1cc(OC)cc(OC)c1` [R926801, N4-(3,5-Dimethoxyphenyl)-5-ethoxycarbonyl-N2-[3-(N-methylamino)carbonylmethyleneoxyphenyl]-2,4-pyrimidinediamine], the figures for the 50% inhibitory concentration (IC50) in test [1] and in test [2] were greater than 10 µM and 10 µM, respectively.

`CCOC(=O)COc1cccc(Nc2nc(Nc3cc(OC)cc(OC)c3)ncc2F)c1` [R926804, N2-(3,5-Dimethoxyphenyl)-N4-(3-ethoxycarbonylmethyleneoxyphenyl)-5-fluoro-2,4-pyrimidinediamine]: the figures for the IC50 in test [1] and in test [2] were 7.11 µM and 1.58 µM, respectively.

Values taken from patent US9499493B2, “2,4-pyrimidinediamine compounds and their uses” (Rigel Pharmaceuticals, Inc., priority 2002, dated 2016).
